What was measured:
[1] = test system: Human diploid fibroblasts (HCA cells); experiment: inhibition of senescence, β-galactosidase staining; assay type: cell-based; settings: test compounds about 50 μM at each passage; for Senescent Cells (%) HCA25: passage 25; for Senescent Cells (%) HCA80: passage 80
Method: Inhibition of senescence by several of the 6,9-disubstituted purine derivatives of this invention was determined; kinetin was also evaluated as a control. […] The medium used for the cell cultivation was removed, the cells were washed twice in PBS, and fixed in 2-3 ml of fixing solution comprised of a 2% formaldehyde and 0.2% glutaraldehyde in PBS. The cells were incubated at room temperature for 5 minutes, and then washed twice with PBS. The cells were subsequently incubated at 37° C. (without CO2) for 1 to 16 hours in 2-3 ml of the solution comprising potassium ferricyanide (5 mM), potassium ferrocyanide (5 mM), MgCl2 (2 mM), X-gal (5-bromo-4-chloro-3-indolyl-β-D-galactopyranoside) (1 mg/ml), in citric/phosphate buffer (pH 6.0). The test compounds (about 50 μM) were added to the medium at each passage. […] In this experiment, only senescent cells were stained blue due to the action of β-galactosidase on the substrate.

[2] = test system: Human forskin fibroblasts (cell line BJ); experiment: in vitro cytotoxic activity, MTT assay; assay type: cell-based; settings: 72 hours, BJ fibroblasts at middle passage
Method: In vitro cytotoxic activity of several of the 6,9-disubstituted purine derivatives of this invention against human diploid fibroblasts was determined by standard MTT assay optimized for 96-well plates. The assay is based on spectrofotometric measurement of the product of metabolic conversion of MTT by mitochondria of living cells.
Human forskin fibroblasts (cell line BJ) at middle passage were maintained in 75 cm^2 plastic tissue culture flasks and cultured in cell culture medium (DMEM with 5 g/l glucose, 2 mM glutamine, 100 U/ml penicillin, 100 μg/ml streptomycin, 10% fetal calf serum, and sodium bicarbonate).
About 5,000 cells were seeded per well of the 96-well plate. After 24 hours the cell culture medium was replaced with the cell culture medium containing a test compound. The test compounds were evaluated at six 2-fold dilutions. The highest concentration used in the present study was usually 200 μM. In the case of compounds with limited solubility in the culture medium the highest concentration was adjusted. Every test compound was examined in five replicates. Cells with the test compounds were incubated for 72 hours at 37° C. in 5% CO2 atmosphere and 100% humidity. At the end of the incubation period, the culture medium was replaced with the cell culture medium containing MTT (0.5 mg/ml) and cells were incubated for another 3 hours. The formazan formed was solubilized by DMSO and absorbance at 570 nm was measured. Ability of the tested compounds to inhibit MTT reducing activity of the cells was calculated as IC=(Acompound exposed well−mean Ablank)/(mean Acontrol well−meanAblank)×100%. IC10, the drug concentration causing 10% decrease in MTT reducing activity, was calculated from the obtained dose response curves.

SMILES	melting point	Senescent Cells (%) HCA50 [1]	Senescent Cells (%) HCA25 [1]	Senescent Cells (%) HCA80 [1]	IC10 (concentration causing 10% decrease in MTT reducing activity) [2]	also measured
COc1cc(OC)c(OC)cc1CNc1ncnc2c1ncn2C1CCCCO1 (stereo not drawn) [6-(2,4,5-trimethoxybenzylamino)-9-(2-tetrahydropyranyl)purine]					>200 µM	
COc1cc(OC)c(OC)cc1Nc1ncnc2c1ncn2C1CCCCO1 (stereo not drawn) [6-(2,4,5-trimethoxyphenylamino)-9-(2-tetrahydropyranyl)purine]		4%	5%	25%		
COc1cc(OC)c(CNc2ncnc3c2ncn3C2CCCCO2)c(OC)c1 (stereo not drawn) [6-(2,4,6-trimethoxybenzylamino)-9-(2-tetrahydropyranyl)purine]					>50 µM	
COc1ccc(CNc2ncnc3c2ncn3C2CCCCO2)c(OC)c1 (stereo not drawn) [6-(2,4-dimethoxybenzylamino)-9-(2-tetrahydropyranyl)purine]		6%	4%	25%	>25 µM	
COc1ccc(Nc2ncnc3c2ncn3C2CCCCO2)c(OC)c1 (stereo not drawn) [6-(2,4-dimethoxyphenylamino)-9-(2-tetrahydropyranyl)purine]		4%	4%	29%		
COc1cc(CNc2ncnc3c2ncn3C2CCCCO2)cc(OC)c1OC (stereo not drawn) [6-(3,4,5-trimethoxybenzylamino)-9-(2-tetrahydropyranyl)purine]						IC10 (concentration causing 10% decrease in MTT reducing activity) ([2]; highest tested concentration 100 µmol/l): >100 µM; IC10 (concentration causing 10% decrease in MTT reducing activity) ([2]; highest tested concentration 200 µmol/l): >200 µM
COc1ccc(CNc2ncnc3c2ncn3C2CCCCO2)cc1OC (stereo not drawn) [6-(3,4-dimethoxybenzylamino)-9-(2-tetrahydropyranyl)purine]					>200 µM	
COc1ccc(Nc2ncnc3c2ncn3C2CCCCO2)cc1OC (stereo not drawn) [6-(3,4-dimethoxyphenylamino)-9-(2-tetrahydropyranyl)purine]		7%	5%	28%		
c1coc(CNc2ncnc3c2ncn3C2CCCO2)c1 (stereo not drawn) [6-furfurylamino-9-(2-tetrahydrofuranyl)purine]	128 to 129 °C	4%	3%	12%	>200 µM	

More lines, main results first:

melting point	SMILES	Senescent Cells (%) HCA50 [1]	Senescent Cells (%) HCA25 [1]	Senescent Cells (%) HCA80 [1]	IC10 (concentration causing 10% decrease in MTT reducing activity) [2]	also measured
142 to 143 °C	COc1ccc(CNc2ncnc3c2ncn3C2CCCCO2)c(OC)c1OC (stereo not drawn) [6-(2,3,4-trimethoxybenzylamino)-9-(2-tetrahydropyranyl)purine]	5%	4%	31%		
106 to 108 °C	COc1ccccc1CNc1ncnc2c1ncn2C1CCCCO1 (stereo not drawn) [6-(2-methoxybenzylamino)-9-(2-tetrahydropyranyl)purine]	6%	4%	22%		
97 to 99 °C	COc1ccccc1CNc1ncnc2c1ncn2C1CCCO1 (stereo not drawn) [Example 8, 6-(2-methoxybenzylamino)-9-(2-tetrahydrofuranyl)purine]					
150 to 151 °C	COc1ccc(Nc2ncnc3c2ncn3C2CCCCO2)cc1 (stereo not drawn) [Example 10, 6-(4-methoxyphenylamino)-9-(2-tetrahydropyranyl)purine]					
150 to 152 °C	COc1ccc(OC)c(CNc2ncnc3c2ncn3C2CCCCO2)c1 (stereo not drawn) [Example 12, 6-(2,5-dimethoxybenzylamino)-9-(2-tetrahydropyranyl)purine]					
103 to 104 °C	COc1ccc(OC)c(CNc2ncnc3c2ncn3C2CCCO2)c1 (stereo not drawn) [Example 13, 6-(2,5-dimethoxybenzylamino)-9-(2-tetrahydrofuranyl)purine]					
140 to 141 °C	COc1ccc(CNc2ncnc3c2ncn3C2CCCO2)c(OC)c1OC (stereo not drawn) [Example 15, 6-(2,3,4-trimethoxybenzylamino)-9-(2-tetrahydrofuranyl)purine]					

Source: US20130072505A1, “6,9-Disubstituted Purine Derivatives and Their Use for Treating Skin” (priority 2006, published 2013)
